According to patent US5994334A, “Androgen synthesis inhibitors” (priority 1997, dated 1999):
Entries after “also recorded” stand apart in the source; their conditions may differ. Where two headings read alike, the source gives them in different places.

What was measured:
[1] = target: T1, human 17α-hydroxylase/C17,20-lyase (Homo sapiens, UniProt P05093); experiment: Inhibition of human testicular 17α-hydroxylase/C17,20-lyase (enzyme complex as a whole); assay type: biochemical
T1 construct: incubating human testicular microsomes; from tissue; host or cells: human testis, microsomes
T1 sequence (P05093 1-508): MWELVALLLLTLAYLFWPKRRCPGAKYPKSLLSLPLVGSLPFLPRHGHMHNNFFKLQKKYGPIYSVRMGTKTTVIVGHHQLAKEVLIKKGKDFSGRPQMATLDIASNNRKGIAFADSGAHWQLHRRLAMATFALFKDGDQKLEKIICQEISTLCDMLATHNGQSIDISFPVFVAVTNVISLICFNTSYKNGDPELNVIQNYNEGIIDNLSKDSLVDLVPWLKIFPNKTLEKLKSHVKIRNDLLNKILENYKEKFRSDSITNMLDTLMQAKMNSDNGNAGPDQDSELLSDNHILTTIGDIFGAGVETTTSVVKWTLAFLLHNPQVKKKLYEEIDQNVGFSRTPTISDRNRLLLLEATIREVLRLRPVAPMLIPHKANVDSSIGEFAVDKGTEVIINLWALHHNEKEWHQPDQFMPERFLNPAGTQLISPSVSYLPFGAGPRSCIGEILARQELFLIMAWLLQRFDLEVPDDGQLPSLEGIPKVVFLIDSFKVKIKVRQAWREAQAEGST
Description: (§1) The conversion of radiolabeled pregnenolone to 17α-hydroxypregnenolone and DHEA by 17α-hydroxylase/C17,20 -lyase was measured by incubating human testicular microsomes with different concentration of test compounds. Reverse phase HPLC was used to separate and accurately quantify the amount of substrate and metabolites. The 17α-hydroxylase and C17,20 -lyase activities were calculated separately. The activity of 17α-hydroxylase was calculated from the conversion of pregnenolone to 17α-hydroxypregnenolone and DHEA and the activity of C17,20 -lyase was based on the conversion of pregnenolone to DHEA. Although 17α-hydroxypregnenolone is the substrate converted to DHEA by C17,20 -lyase, it has been reported that this 17α-hydroxy intermediate is not released from the enzyme binding site during conversion (Nakajin et al., 1981a,b). Also, there are species differences in substrate requirements. Pregnenolone is the natural substrate rather than progesterone for human testicular 17α-hydroxylase and C17,20 -lyase. Therefore, pregnenolone was used as substrate for measuring the activity of this enzyme complex.

[2] = target: T2, Human Testicular 17α-Hydroxylase (Homo sapiens, UniProt P05093); experiment: Inhibition of human testicular 17α-hydroxylase (pregnenolone substrate, testicular microsomes); assay type: biochemical; settings: for inhibition at 0.1 µM: read-out: % Inhibition 17α-hydroxylase, [I] = 100 nM; for inhibition at 0.4 µM: read-out: % Inhibition 17α-hydroxylase, [I] = 400 nM
T2 construct: incubating human testicular microsomes; from tissue; host or cells: human testis, microsomes
T2 sequence (P05093 1-508): T1 sequence (P05093 1-508)
Description: as §1

[3] = target: T3, Human Testicular C17,20-lyase (Homo sapiens, UniProt P05093); experiment: Inhibition of human testicular C17,20-lyase (pregnenolone substrate, testicular microsomes); assay type: biochemical; settings: for inhibition at 0.1 µM: read-out: % Inhibition C17,20-lyase, [I] = 100 nM; for inhibition at 0.4 µM: read-out: % Inhibition C17,20-lyase, [I] = 400 nM
T3 construct: incubating human testicular microsomes; from tissue; host or cells: human testis, microsomes
T3 sequence (P05093 1-508): T1 sequence (P05093 1-508)
Description: as §1

[4] = target: T4, Human Prostatic 5α-Reductase (Homo sapiens, UniProt P31213); experiment: Inhibition of human prostatic 5α-reductase (prostatic microsomes, [3H]testosterone); settings: for IC50: IC50 5α-reductase; for inhibition at 0.1 µM: read-out: % Inhibition of 5α-reductase, [I] 100 nM; for inhibition at 0.01 µM: read-out: % Inhibition of 5α-reductase, [I] 10 nM
T4 sequence (P31213 1-254): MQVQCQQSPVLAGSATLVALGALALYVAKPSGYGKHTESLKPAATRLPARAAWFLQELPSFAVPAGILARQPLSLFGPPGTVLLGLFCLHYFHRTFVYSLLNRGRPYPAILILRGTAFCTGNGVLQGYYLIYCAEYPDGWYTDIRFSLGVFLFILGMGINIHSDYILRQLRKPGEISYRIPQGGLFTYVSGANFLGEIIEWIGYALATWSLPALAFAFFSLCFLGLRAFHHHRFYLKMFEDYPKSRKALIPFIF
Description: The 5α-reductase assay is performed by incubating human prostatic microsomes (approx. 0.6 mg protein in 0.5 ml phosphate buffer) with [7-^3 H]testosterone (10 mM. 6×10^5 dpm) with a NADPH generating system (NADP 0.65 mM; glucose-6-phosphate 7.1 mM; glucose-6-phosphate dehydrogenase 2.5 IU in 100 μl phosphate buffer) and candidate inhibitors at concentrations of 10 nM and 100 nM under oxygen for 30 min at 37° C. […] The steroids are extracted with ether and separated by chromatography on TLC (chloroform:ether 80:20). […] The steroids are scraped from the plate and radioactivity measured.

[5] = system: LNCaP human prostatic cancer cell line; experiment: Androgen-dependent growth of LNCaP cells
Description: The ability of various inhibitors to reverse the stimulatory effect of testosterone on the growth of the LNCaP human prostatic cancer cell line was tested by comparing cell number in wells treated for 9 days with either drug vehicle only (control), 0.1 nM testosterone only, or 0.1 nM testosterone with inhibitor at 0.3, 1, 2.5, or 5 μM.

[6] = Table 1, NI = no inhibition, read-out: IC50 17α-OHase
[7] = Table 3, first figure of 17α-hydroxylase/lyase pair, read-out: IC50 17α-hydroxylase
[8] = first figure of pair, read-out: IC50 17α-hydroxylase
[9] = second figure of pair, read-out: IC50 C17,20-lyase

Cc1nc([C@H]2CC[C@H]3[C@@H]4CC=C5C[C@@H](O)CC[C@]5(C)[C@H]4CC[C@]23C)c[nH]1 [Compound L-4]
IC50 ([1]; one value for 17α-hydroxylase/lyase; NI = no inhibition; read-out: IC50 17α-hydroxylase/lyase (single entry)): 400 nM | inhibition at 0.1 µM [2]: 13.8% | inhibition at 0.4 µM [2]: 41.9% | inhibition at 0.1 µM [3]: 70.2% | inhibition at 0.4 µM [3]: 100%

Cc1nc([C@H]2CC[C@H]3[C@@H]4CC=C5C[C@@H](O)CC[C@]5(C)[C@H]4CC[C@]23C)co1 [Compound L-5]
inhibition of 17α-hydroxylase/C17,20-lyase (in words) ([1]; NI = no inhibition): less inhibition | inhibition at 0.1 µM ([2]; 100 nM, first figure of pair): 22.4% | inhibition at 0.4 µM ([2]; 400 nM, first figure of pair): 26.5% | inhibition at 0.1 µM ([3]; 100 nM, second figure of pair): 71.2% | inhibition at 0.4 µM ([3]; 400 nM, second figure of pair): 81.7%

C[C@]12CCC(=O)C=C1CC[C@@H]1[C@@H]2CC[C@]2(C)C(c3c[nH]cn3)=CC[C@@H]12 [Compound L-6, 17β-(4'-imidazolyl)-androsta-4,16-dien-3-one]
inhibition of 17α-hydroxylase/C17,20-lyase (in words) ([1]; NI = no inhibition): potent inhibitors | times more potent than ketoconazole ([1]; vs ketoconazole): 10-50 times | IC50 [2, 6]: 16 nM | IC50 [2, 7]: 15.6 nM | IC50 [2, 8]: 16 nM | IC50 [3, 9]: 2 nM | IC50 [4]: 522 nM | IC50 ([4]; Table 2): 522 nM | IC50 ([4]; Table 3, NI = no inhibition): 522 nM | inhibition of 5α-reductase (in words) ([4]; NI = no inhibition): potent inhibitors; also recorded: potent inhibition of 5α-reductase | inhibition at 0.1 µM [4]: 25.2%

C[C@@H](O)C1=CC[C@H]2[C@@H]3CC=C4C[C@@H](O)CC[C@]4(C)[C@H]3CC[C@]12C [Compound L-8]
IC50 ([1]; read-out: IC50 17α-hydroxylase/lyase (single entry); one value for 17α-hydroxylase/lyase; NI = no inhibition): 100 nM | inhibition at 0.4 µM [2]: 82.7% | inhibition at 0.1 µM [3]: 66.2% | inhibition at 0.4 µM [3]: 83.3% | inhibition at 0.01 µM [4]: 37.1%

C[C@@H](O)C1=CC[C@H]2[C@@H]3CCC4=CC(=O)CC[C@]4(C)[C@H]3CC[C@]12C [Compound L-10, 20β-hydroxy-pregna-4,16-dien-3-one]
inhibition at 0.1 µM [2]: 14.9% | inhibition at 0.4 µM [2]: 8.19% | reversal of DHT-stimulated LNCaP growth (in words) ([5]; 0.03 nM DHT): not dose-dependent | reversal of testosterone-stimulated LNCaP growth (in words) ([5]; 0.1 nM testosterone, inhibitor 0.3-5 μM, 9 days): dose-dependent reversal | inhibition at 0.1 µM [3]: 2.28% | inhibition at 0.4 µM [3]: 8.48% | IC50 [4]: 20 nM | IC50 ([4]; Table 2): 21 nM | IC50 ([4]; Table 3, NI = no inhibition): 21 nM | inhibition of 5α-reductase (in words) ([4]; NI = no inhibition): almost equipotent with finasteride | inhibition at 0.01 µM [4]: 97% | inhibition at 0.1 µM [4]: 90.7%

CC(=O)O[C@H]1CC[C@@]2(C)C(=CC[C@@H]3[C@@H]2CC[C@]2(C)C(c4c[nH]cn4)=CC[C@@H]32)C1 [Compound L-12]
inhibition of 17α-hydroxylase/C17,20-lyase (in words) ([1]; NI = no inhibition): lower potency than I-49; also recorded: weaker inhibitor than I-49 | inhibition at 0.1 µM ([2]; 100 nM, first figure of pair): 62.4% | inhibition at 0.4 µM ([2]; 400 nM, first figure of pair): 89.3% | IC50 [2, 6]: 75 nM | IC50 [2, 7]: 74.6 nM | IC50 [2, 8]: 75 nM | inhibition at 0.1 µM ([3]; 100 nM, second figure of pair): 82.1% | inhibition at 0.4 µM ([3]; 400 nM, second figure of pair): 97% | IC50 ([3]; Table 1, NI = no inhibition, CI = complete inhibition, read-out: IC50 C17,20 lyase): 25 nM | IC50 ([3]; Table 3, second figure of pair, CI = complete inhibition, read-out: IC50 lyase): 24.8 nM | IC50 [3, 9]: 25 nM

CC(=O)C1=CC[C@H]2[C@@H]3CCC4=CC(=O)CC[C@]4(C)[C@H]3CC[C@]12C [Compound L-13, 16-dehydroprogesterone]
inhibition of 17α-hydroxylase/C17,20-lyase (in words) ([1]; NI = no inhibition): potent inhibitors of both enzymes | times more potent than ketoconazole ([1]; vs ketoconazole): 10-50 times | IC50 ([2]; IC50 17α-OHase): 73 nM | IC50 ([2]; IC50 17α-hydroxylase): 72.7 nM | IC50 ([2]; IC50 17α-hydroxylase (text)): 73 nM | IC50 ([3]; IC50 C17,20-lyase): 24 nM | IC50 ([3]; IC50 C17,20 lyase): 24 nM | IC50 ([3]; IC50 lyase): 23.7 nM | IC50 [4]: 22 nM | IC50 ([4]; Table 2): 22 nM | IC50 ([4]; Table 3, NI = no inhibition): 21.8 nM | inhibition of 5α-reductase (in words) ([4]; NI = no inhibition): potent inhibition of 5α-reductase; also recorded: almost equipotent with finasteride | inhibition at 0.1 µM [4]: 87.8% | inhibition at 0.4 µM ([4]; read-out: % Inhibition of 5α-reductase, [I] 400 nM): 96.4%
